Assay results as given in patent US11345701B1, “KRAS mutant protein inhibitors” (Jacobio Pharmaceuticals Co., Ltd., priority 2021, dated 2022).

Experiments:
[1] = system: NCI-H1373 (KRAS^G12C) xenograft; assay: Efficacy in NCI-H1373 (KRAS G12C) xenograft model; type: in vivo, BALB/c nude mice; details: 10 mg/kg, QD
Experimental: NCI-H1373 (KRAS^G12C) cells (5.0E+06 cells) were injected subcutaneously into the right flank of female BALB/c nude mice (6-8 weeks) in a mixture with PBS and Matrigel (Corning) (PBS/Matrigel=1:1(v/v)). Mice were monitored daily and caliper measurements began when tumors became visible. Tumor volume was calculated by measuring two perpendicular diameters using the formula: (L*W^2)/2 in which L and W refer to the length and width tumor diameter respectively. When the average tumor volume reached 150-200 mm^3, mice were grouped randomly (n=6/group) and treated with compounds. Tumor volume and mice weight was measured twice a week during treatment (˜ 3 weeks). Tumor growth inhibition rates were calculated by TGI %=(1−(Vt−Vt0)/(Vc−Vc0))*100%, wherein Vc and Vt are the mean tumor volume of control and treated groups at the end of the study respectively, and Vc0 and Vt0 are the mean tumor volume of control and treated groups at the start respectively. The results are in the following Table 7 and FIG. 1: […]

HIS-KRAS(G12C) = HIS-KRAS(G12C) (Homo sapiens (Human), UniProt P01116, G12C); assay: SOS1 catalyzed nucleotide exchange assay (TR-FRET); type: biochemical
HIS-KRAS(G12C), sequence (P01116 other isoform, or with tags, fused parts or gaps G12C): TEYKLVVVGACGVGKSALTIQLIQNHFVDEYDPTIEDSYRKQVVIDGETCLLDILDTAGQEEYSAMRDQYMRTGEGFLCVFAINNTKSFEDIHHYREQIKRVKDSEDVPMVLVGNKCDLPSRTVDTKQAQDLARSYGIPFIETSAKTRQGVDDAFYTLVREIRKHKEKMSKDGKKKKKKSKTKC
Experimental: TR-FRET signals were then read on Tecan Spark multimode microplate reader. […] TR-FRET ratios for each individual wells were calculated by equation: TR-FRET ratio=(Signal F515/Signal F486)*10000. Then the data were analyzed using a 4-parameter logistic model to calculate IC50 values.

[2] = system: NCI-H358 cells expressing KRAS G12C mutant protein; assay: Phospho-ERK1/2(THR202/TYR204) HTRF assay; type: cell-based
Experimental: The NCI-H358 cells in culture medium were seeded in 96-well plates at a concentration of 40,000 cells/well and then put in a 37° C./5% CO2 cell incubator to incubate overnight. […] After 2 hours incubation in a 37° C./5% CO2 cell incubator, the assay medium in 96-well plates was removed, then 50 μL of 1× blocking reagent-supplemented lysis buffer (Cisbio) was added and the plates were incubated at 25° C. for 45 min with shaking. 10 μL of cell lysates from the 96-well plates were transferred to a 384-well plate (Greiner) containing 2.5 μL/well HTRF® pre-mixed antibodies (Cisbio 64AERPEH). Incubate 4 hours at 25° C. and then read HTRF signals on Tecan Spark multimode microplate reader. The data were analyzed using a 4-parameter logistic model to calculate IC50 values.

[3] = Dog pharmacokinetic study; type: in vivo, beagle dog; details: for CL / VSS / AUC0-24h / Cmax / Oral BA (F %): beagle dog; for CL / VSS: 1 mg/kg, iv; for AUC0-24h / Cmax / Oral BA (F %) / AUC0-24 h relative to the control compound Amg-510: 3 mg/kg, po
Experimental: The purpose of this study was to evaluate the pharmacokinetic properties of compounds in beagle dog following single dose administration. The day before administration, dogs were fasted overnight and free access to water. Four beagle dogs were needed for each compound and the four dogs were divided into two groups, group A and group B (one male(♂) and one female (♀) in each group). Dogs in group A were treated with a single 1 mg/kg dose of compound (iv). Dogs in group B were treated with a single 3 mg/kg dose of compound (po). For dogs in group A, blood samples were collected at pre-dose, and at the time point of 0.083, 0.25, 0.5, 1, 2, 4, 6, 8 and 24 h post-dose. For dogs in group B, blood samples were collected at pre-dose, and at the time point of 0.25, 0.5, 1, 2, 4, 6, 8 and 24 h post-dose. Blood samples were placed on ice until centrifugation to obtain plasma samples. The plasma samples were stored at −80° C. until analysis. The concentration of compound in plasma samples was determined using a LC-MS/MS method.

[4] = Mouse pharmacokinetic study; type: in vivo, Balb/c mouse
Experimental: The purpose of this study was to evaluate the pharmacokinetic properties of compounds in Balb/c mouse (♀) following single dose administration. The day before administration, mice were fasted overnight and free access to water. Six mice were needed for each compound and the six mice were divided into two groups (n=3/group), group A and group B. Mice in group A were treated with a single 3 mg/kg dose of compound (iv). Mice in group B were treated with a single 10 mg/kg dose of compound (po). For each mouse in group A, blood samples were collected at pre-dose, and at the time point of 0.083, 0.25, 0.5, 1, 2, 4, 6, 8 and 24 h post-dose. For each mouse in group B, blood samples were collected at pre-dose, and at the time point of 0.25, 0.5, 1, 2, 3, 4, 6, 8 and 24 h post-dose. Blood samples were placed on ice until centrifugation to obtain plasma samples. The plasma samples were stored at −80° C. until analysis. The concentration of compound in plasma samples was determined using a LC-MS/MS method.

[5] = system: SW837 (KRAS^G12C) xenograft; assay: Safety exploration in SW837 (KRAS G12C) xenograft model; type: in vivo; details: 400 mg/kg, po, QD for 22 days, female NOD SCID mice, FIG. 2
Experimental: SW837 (KRAS^G12C) cells (1.0E+07 cells) were injected subcutaneously into the right flank of female NOD SCID mice (6-8 weeks) in a mixture with PBS and Matrigel (Corning) (PBS/Matrigel=1:1(v/v)). Mice were monitored daily and caliper measurements began when tumors became visible. Tumor volume was calculated by measuring two perpendicular diameters using the following formula: (L*W^2)/2 in which L and W refer to the length and width tumor diameter respectively. After mice were grouped to study the efficacy, the remaining mice (n=8) were used to explore the safety. The mice were treated with 400 mg/kg Compound 2-1 (po, QD) for 22 days, and mice body weight was measured twice a week during treatment. From FIG. 2, it can be seen that the Compound 2-1 has good safety.

[6] = Balb/c mouse (female), 3 mg/kg, iv
[7] = Balb/c mouse (female), 10 mg/kg, po

For C=CC(=O)N1CCN(c2nc(=O)n(-c3c(C)ccnc3C(C)C)c3nc(-c4c(N)c(F)c(F)c(F)c4F)c(F)cc23)[C@@H](C)C1 (atropisomer, axis not shown; (M)) [Compound 2-1, (M)-4-((S)-4-acryloyl-2-methylpiperazin-1-yl)-7-(2-amino-3,4,5,6-tetrafluorophenyl)-6-fluoro-1-(2-isopropyl-4-methylpyridin-3-yl)pyrido[2,3-d]pyrimidin-2(1H)-one], the “Tumor response in words” value ([1]; Table 7 and FIG. 1) was “regression of the tumor has been observed”, the “Tumor volume at the end (Day 21)” value ([1]; female BALB/c nude mice, Day 21) was 27 mm^3 and the “Tumor volume at the start” value ([1]; female BALB/c nude mice, baseline) was 192 mm^3. For the same molecule, the TGI % ([1]; female BALB/c nude mice, end of study (Day 21)) was 110%, the IC50 (HIS-KRAS(G12C); GDP-loaded HIS-KRAS(G12C), 1 hour pre-incubation, TR-FRET) was 1.19 nM and the “Inhibitory activity relative to the control compound Amg-510” value (HIS-KRAS(G12C); SOS1 catalyzed nucleotide exchange assay) was “about 2 times”. For the same molecule, the IC50 ([2]; 2 hours incubation, read-out: p-ERK IC50) was 14.5 nM, the “Inhibitory activity relative to the control compound Amg-510” value ([2]; phospho-ERK1/2 HTRF assay) was “about 2 times” and the “Pharmacokinetic properties in words” value ([3]; beagle dog model, compared with Amg-510) was “excellent pharmacokinetic properties”. For the same molecule, the CL ([3]; female) was 4.40 mL/min/kg, the VSS ([3]; female) was 0.295 L/kg and the AUC0-24h ([3]; female) was 5022 ng·h/mL. For the same molecule, the Cmax ([3]; female) was 2330 ng/mL, the “Oral BA (F %)” value ([3]; female) was 44.3% and the CL ([3]; male) was 4.15 mL/min/kg. It also gave a VSS ([3]; male) of 0.255 L/kg, an AUC0-24h ([3]; male) of 7308 ng·h/mL and a Cmax ([3]; male) of 4080 ng/mL. The “Oral BA (F %)” value ([3]; male) was 60.9%, the “AUC0-24 h relative to the control compound Amg-510” value ([3]; female beagle dog) was “more than 12 times” and the “AUC0-24 h relative to the control compound Amg-510” value ([3]; male beagle dog) was “more than 3 times”. It also gave a CL [4, 6] of 38.9 mL/min/kg, a Vss [4, 6] of 1.28 L/kg and an AUC0-24h [4, 7] of 2618 ng·h/mL. For the same molecule, the Cmax [4, 7] was 2440 ng/mL, the “Oral BA (F %)” value [4, 7] was 58.9% and the “Pharmacokinetic properties in words” value ([4]; mouse model, 3 mg/kg iv and 10 mg/kg po) was “good pharmacokinetic properties”. For the same molecule, the “Safety judged from mice body weight” value [5] was “good safety”.
